This is an account of results in paper PMC8453745, “Human Mass Balance and Metabolite Profiling of [^14C]‐Pamiparib, a Poly (ADP‐Ribose) Polymerase Inhibitor, in Patients With Advanced Cancer” (Clinical Pharmacology in Drug Development, 2021).

Data set [1] in a line: metabolite profiling in plasma (radioprofiling, LC‐MS). Format: in vivo, human. How it is done: Total radioactivity concentrations of [^14C]‐pamiparib in whole blood, plasma, urine, and feces were determined by liquid scintillation counting (LSC). Radioactivity in each sample was measured for 5 minutes using a Packard Tri‐Carb liquid scintillation counter model 2100TR, 2900TR, or 3100TR (Canberra Packard, Pangbourne, Berks, Australia) with the facilities for computing quench‐corrected disintegrations per minute. Metabolite identification in plasma, urine, and feces was conducted by LC‐MS. Quantitation of the metabolites present in plasma, urine, and feces was based on the profiles of radioactivity. The limit of quantitation for radioactivity in plasma, urine, and feces was set at 1% of each chromatographic analysis (run) and 10 counts per minute (cpm) peak height; therefore, radioactive peaks that were <1% of the total run or <10 cpm peak height were reported as not detected. In addition, pamiparib and standards were reported, regardless of the percentage of run or peak height.
For metabolite profiling in plasma, ≈1.9 to 2.8 g of each plasma sample collected 0.5, 1, 2, 6, 12, and 24 hours postdose was extracted twice with 6 mL of 0.1% formic acid in acetonitrile (ACN). Duplicate aliquots were analyzed by LSC to determine extraction recoveries, which ranged from 77.4% to 98.5%. The combined supernatants were evaporated to dryness under nitrogen and reconstituted in 2:1 reverse osmosis water:methanol (MeOH). Duplicate aliquots were analyzed by LSC to determine reconstitution recoveries, which ranged from 89.3% to 115%. The reconstituted samples were analyzed by LC‐MS, with eluent fractions collected at 10‐second intervals into 96‐well plates containing solid scintillant. Radioactivity in each well was determined using TopCount analysis, and radiochemical profiles were generated based on radioactivity counts.
Metabolic profiling was performed on plasma, urine, and feces samples using LC‐MS. Shimadzu/Nexera LC‐30AD pumps and Shimadzu/Prominence DGU‐20A5R degasser were used with Shimadzu/Prominence controller CBM‐20A. The high‐pressure liquid chromatograph (HPLC) was equipped with an autoinjector (Shimadzu/Nexera SIL‐30ACMP) set at 10°C and a fraction collector (Leap Technologies PAL HTC‐xt) set at 15°C. Thermo Fisher Scientific Q Exactive was the mass spectrometer system.

The next data set concerns PARP1. Details: method as in PMID 33264017. The following applies: read-out: PARP1 inhibition IC50; cited from earlier work.
Data set [2] relates to CYP1A2, CYP2B6, CYP2C9, CYP2C19. In words: CYP450 phenotyping in HLMs with all other CYP inhibitors. The following applies: HLM incubation. Format: in vitro ADME, human. The procedure:
Metabolic stability in human liver microsomes (HLMs) and cytochrome P450 (CYP450) phenotyping assays were conducted in 3D BioOptima (Suzhou, China) using validated methodology, [13] to determine the intrinsic clearance and enzymes responsible for metabolism of pamiparib. HLMs for microsome stability was from BD Biosciences (Woburn, New York). For phenotyping, HLMs and recombinant P450 (rCYP) were from Corning (Woburn, New York). Pamiparib (1 μM) was incubated with pooled HLM (0.5 mg/mL), NADPH (1 mM), and MgCl2 (3 mM) terminated at 0, 5, 15, 30, 60, and 90 minutes. The intrinsic clearance was calculated as 0.693/(t1/2 × HLM concentration), where t1/2 is the half‐life of pamiparib determined in HLMs. For phenotyping in HLMs, pamiparib (1 μM) was incubated in the absence or presence of isoform‐selective inhibitors: 0.2 μM α‐naphthoflavone for CYP1A2, 2 μM clopidogrel for CYP2B6, 16 μM montelukast for CYP2C8, 10 μM sulfaphenazole for CYP2C9, 30 μM nootkatone for CYP2C19, 2 μM quinidine for CYP2D6, and 1 μM ketoconazole for CYP3A. The following isoform‐selective probe substrates served as positive controls: 40 μM phenacetin for CYP1A2, 100 μM bupropion for CYP2B6, 2 μM amodiaquine for CYP2C8, 5 μM diclofenac for CYP2C9, 40 μM S‐mephenytoin for CYP2C19, 5 μM dextromethorphan for CYP2D6, and 2 μM midazolam for CYP3A4. […] Pamiparib, M1, and M2 were analyzed by LC‐MS/MS.

The IC50 is the concentration needed to halve the response being measured.

Where “and” joins values, the source holds several entries; their conditions need not be identical. Equal entries are not always repeated.

`C[C@]12CCCN1CC1=NNC(=O)c3cc(F)cc4[nH]c2c1c34` [Pamiparib]: in data set [1] (based on high‐performance liquid chromatography‐liquid scintillation counting), the “AUC0‐t, geometric mean” value was 19670 ngEq·h/mL. For the same molecule, in data set [1] (based on high‐performance liquid chromatography‐liquid solid chromatography), the “Cmax, geometric mean” value is given as 1737 ngEq/mL. Further, the “mean percent of total radioactivity exposure in plasma (AUC0‐24h)” value in data set [1] (plasma, mean of patients) was 67.2% ± 10.2% and 67.2% and 67%. Moreover, the “Percent of Total Radioactivity Concentration (AUC0‐24h)” value was 78.0% in data set [1] (plasma, patient S101); 72.6% in data set [1] (plasma, patient S102); 63.2% in data set [1] (plasma, patient S103); 55.0% in data set [1] (plasma, patient S104). Also, in the data set with PARP1, the IC50 is 1.3 nM. Besides, the “effect of all other CYP inhibitors on pamiparib metabolism” value in data set [2] was “nearly no effect”.
